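Where inhibition never reached the appropriate level, the endpoint shown equals the highest concentration tested. Otherwise, values were interpolated linearly from a five-concentration, 48-hour dose response in 96-well plates. Abbreviation: GI50, concentration required for 50% inhibition of growth. The concentration for full growth arrest is given as TGI.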
Columns and labels:
Assay in all cases: growth of human tumour cells (NCI), 48 h
[1] = tested on: A549 NSCLC
[2] = tested on: T-47D breast
[3] = tested on: PC-3 prostate
[4] = tested on: OVCAR-3 ovarian
[5] = tested on: RPMI-8226 leukemia
[6] = tested on: MDA-MB-231 breast
[7] = tested on: HT29 colon
[8] = tested on: U251 CNS
[9] = tested on: HCT-116 colon
[10] = tested on: SK-MEL-5 melanoma
[11] = tested on: UO-31 renal
[12] = tested on: HCT-15 colon
[13] = tested on: SF-295 CNS
[14] = tested on: HOP-62 NSCLC
[15] = tested on: BT-549 breast
[16] = tested on: MOLT-4 leukemia
[17] = tested on: NCI/ADR-RES ovarian
[18] = tested on: SNB-19 CNS
[19] = tested on: 786-0 renal
[20] = tested on: NCI-H226 lung
[21] = tested on: UACC-62 melanoma
[22] = tested on: NCI-H23 lung
[23] = tested on: K-562 leukemia
[24] = tested on: SN12C renal
[25] = tested on: CCRF-CEM leukemia
[26] = tested on: MALME-3M melanoma
[27] = tested on: EKVX NSCLC
[28] = tested on: SF-268 CNS
[29] = tested on: OVCAR-4 ovarian
[30] = tested on: TK-10 renal
[31] = tested on: UACC-257 melanoma
[32] = tested on: HL-60(TB) leukemia
[33] = tested on: MCF7 breast
[34] = tested on: SK-MEL-28 melanoma
[35] = tested on: M14 melanoma
[36] = tested on: NCI-H460 lung
[37] = tested on: SK-OV-3 ovarian
[38] = tested on: COLO 205 colon
[39] = tested on: SW-620 colon
[40] = tested on: DU-145 prostate
[41] = tested on: OVCAR-5 ovarian
[42] = tested on: HOP-92 NSCLC
[43] = tested on: OVCAR-8 ovarian
[44] = tested on: ACHN renal
[45] = tested on: MDA-MB-435
[46] = tested on: A498 renal
[47] = tested on: HCC-2998 colon
[48] = tested on: SNB-75 CNS
[49] = tested on: SR leukemia
[50] = tested on: IGROV1 ovarian
[51] = tested on: LOX IMVI melanoma
[52] = tested on: NCI-H522 lung
[53] = tested on: SK-MEL-2 melanoma
[54] = tested on: SF-539 CNS
[55] = tested on: CAKI-1 renal
[56] = tested on: KM12 colon
[57] = tested on: HS 578T breast
[58] = tested on: RXF 393 renal

Structure (SMILES): O=C(O)c1cc(O)c2c(c1)Cc1cccc(O)c1C2=O
- TGI [1]: > 100 µM
- TGI [2]: > 100 µM
- TGI [3]: > 100 µM
- TGI [4]: 36.9 µM
- TGI [5]: 53.2 µM
- TGI [6]: 52.4 µM
- TGI [7]: > 100 µM
- TGI [8]: 37.3 µM
- TGI [9]: 67.1 µM
- TGI [10]: 40 µM
- TGI [11]: 34.2 µM
- TGI [12]: 33 µM
- TGI [13]: 50.5 µM
- TGI [14]: 43 µM
- TGI [15]: > 100 µM
- TGI [16]: 56.5 µM
- TGI [17]: 93.9 µM
- TGI [18]: 95.1 µM
- TGI [19]: 92.2 µM
- TGI [20]: 59.5 µM
- TGI [21]: 36.8 µM
- TGI [22]: > 100 µM
- TGI [23]: > 100 µM
- TGI [24]: 33.9 µM
- TGI [25]: > 100 µM
- TGI [26]: 38.1 µM
- TGI [27]: 80 µM
- TGI [28]: 56.6 µM
- TGI [29]: > 100 µM
- TGI [30]: > 100 µM
- TGI [31]: 67 µM
- TGI [32]: 47.2 µM
- TGI [33]: > 100 µM
- TGI [34]: > 100 µM
- TGI [35]: 55.2 µM
- TGI [36]: 65.6 µM
- TGI [37]: > 100 µM
- TGI [38]: 57.4 µM
- TGI [39]: > 100 µM
- TGI [40]: > 100 µM
- TGI [41]: > 100 µM
- TGI [42]: 41.3 µM
- TGI [43]: 55.8 µM
- TGI [44]: 34.8 µM
- TGI [45]: > 100 µM
- TGI [46]: > 100 µM
- TGI [47]: > 100 µM
- TGI [48]: 30.6 µM
- TGI [49]: 66.8 µM

Structure (SMILES): Cc1cccc2c1O/C(=C\c1ncc([N+](=O)[O-])n1C)C2=O
- GI50 [1]: 0.382 µM
- TGI [1]: 2.26 µM
- GI50 [2]: 9.23 µM
- TGI [2]: 58.7 µM
- GI50 [3]: 0.445 µM
- GI50 [4]: 0.254 µM
- TGI [4]: 0.864 µM
- GI50 [5]: 0.589 µM
- TGI [5]: 2.01 µM
- GI50 [6]: 0.295 µM
- TGI [6]: 1.51 µM
- GI50 [7]: 0.104 µM
- TGI [7]: 0.404 µM
- GI50 [8]: 0.371 µM
- TGI [8]: 1.64 µM
- GI50 [9]: 0.0557 µM
- TGI [9]: 0.422 µM
- GI50 [10]: 0.152 µM
- TGI [10]: 0.367 µM
- GI50 [11]: 0.19 µM
- TGI [11]: 0.708 µM
- GI50 [12]: 0.0874 µM
- TGI [12]: 0.318 µM
- GI50 [13]: 0.516 µM
- TGI [13]: 2.62 µM
- GI50 [14]: 0.599 µM
- TGI [14]: 1.97 µM
- GI50 [15]: 0.275 µM
- TGI [15]: 1.19 µM
- GI50 [16]: 0.0449 µM
- TGI [16]: 0.833 µM
- GI50 [17]: 0.2 µM
- TGI [17]: 0.783 µM
- GI50 [50]: 0.217 µM
- TGI [50]: 2.92 µM
- GI50 [18]: 0.615 µM
- TGI [18]: 4.6 µM
- GI50 [51]: 0.092 µM
- TGI [51]: 0.387 µM
- GI50 [19]: 0.28 µM
- TGI [19]: 0.969 µM
- GI50 [20]: 1.08 µM
- TGI [20]: 4.29 µM
- GI50 [21]: 0.316 µM
- TGI [21]: 1.09 µM
- GI50 [22]: 0.213 µM
- TGI [22]: 0.742 µM
- GI50 [23]: 0.304 µM
- TGI [23]: 3.18 µM
- GI50 [52]: 0.188 µM
- TGI [52]: 0.523 µM
- GI50 [53]: 0.246 µM
- TGI [53]: 0.584 µM
- GI50 [25]: 0.0701 µM
- TGI [25]: 0.597 µM
- GI50 [26]: 0.185 µM
- TGI [26]: 0.474 µM
- GI50 [54]: 1.15 µM
- TGI [54]: 3.87 µM
- GI50 [28]: 0.215 µM
- TGI [28]: 0.942 µM
- GI50 [29]: 0.635 µM
- TGI [29]: 6.65 µM
- GI50 [30]: 0.257 µM
- TGI [30]: 0.66 µM
- GI50 [31]: 0.542 µM
- TGI [31]: 5.2 µM
- GI50 [32]: 0.216 µM
- TGI [32]: 1.13 µM
- GI50 [33]: 0.243 µM
- TGI [33]: 3.27 µM
- GI50 [34]: 0.24 µM
- TGI [34]: 0.688 µM
- GI50 [35]: 0.169 µM
- TGI [35]: 0.5 µM
- GI50 [36]: 0.132 µM
- TGI [36]: 0.581 µM
- GI50 [37]: 0.812 µM
- TGI [37]: 3.83 µM
- GI50 [38]: 0.254 µM
- TGI [38]: 1.42 µM
- GI50 [39]: 0.0888 µM
- TGI [39]: 0.537 µM
- GI50 [40]: 0.238 µM
- TGI [40]: 0.762 µM
- GI50 [41]: 0.576 µM
- TGI [41]: 4.45 µM
- GI50 [42]: 0.279 µM
- TGI [42]: 1.64 µM
- GI50 [43]: 0.166 µM
- GI50 [44]: 0.0595 µM
- TGI [44]: 0.341 µM
- GI50 [55]: 0.135 µM
- TGI [55]: 0.479 µM
- GI50 [56]: 0.262 µM
- TGI [56]: 0.877 µM
- GI50 [45]: 0.153 µM
- TGI [45]: 0.35 µM
- GI50 [47]: 0.881 µM
- TGI [47]: 3.59 µM
- GI50 [48]: 0.781 µM
- TGI [48]: 3.36 µM
- TGI [49]: 0.0699 µM
- GI50 [57]: 0.375 µM
- TGI [57]: 4.7 µM

Structure (SMILES): CN(C)CCCn1c(-c2cc(C(C)(C)C)c(O)c(C(C)(C)C)c2)csc1=Nc1ccccc1
- TGI [1]: 3.46 µM
- TGI [3]: 3.58 µM
- TGI [4]: 3.04 µM
- TGI [6]: 20.8 µM
- TGI [12]: 9.05 µM
- TGI [13]: 3.26 µM
- TGI [58]: 4.01 µM
- TGI [14]: 3.34 µM
- TGI [15]: 7.8 µM
- TGI [16]: 0.547 µM
- TGI [17]: 3.45 µM
- TGI [18]: 4.52 µM
- TGI [20]: 3.59 µM
- TGI [21]: 4.62 µM
- TGI [22]: 3.73 µM
- TGI [24]: 6.15 µM
- TGI [53]: 8.51 µM
- TGI [27]: 4.26 µM
- TGI [54]: 3.38 µM
- TGI [28]: 3.95 µM
- TGI [30]: 5.45 µM
- TGI [31]: 3.39 µM
- TGI [32]: 8.76 µM
- TGI [34]: 4.73 µM
- TGI [35]: 3.84 µM
- TGI [36]: 6.58 µM
- TGI [37]: 3.94 µM
- TGI [39]: > 100 µM
- TGI [41]: 4.19 µM
- TGI [44]: 9.14 µM
- TGI [55]: 52.4 µM
- TGI [56]: 3.6 µM
- TGI [45]: 5 µM
- TGI [46]: 6.94 µM
- TGI [47]: 3.65 µM
- TGI [48]: 8.34 µM

Source: PubChem BioAssay (NCI)
